Test results: US11673890B2, “N1-pyrazolospiroketone acetyl-CoA carboxylase inhibitors” (Pfizer Inc., priority 2010, dated 2023)
pIC50: −log10 of the molar value.

What was measured:
[1] = molecular target: T1, recombinant human ACC2 (rhACC2) (Homo sapiens, UniProt O00763, V2141I); test: recombinant hACC2 Transcreener assay (ADP detection FP); format: biochemical; conditions: 50 μM ATP, minimum of n=3
T1 construct: a full length Cytomax clone of ACC2 was purchased from Cambridge Bioscience Limited; made in house; host or cells: CHO cells (tetracycline-inducible, pcDNA5 FRT TO-TOPO)
T1 sequence (O00763 whole entry V2141I): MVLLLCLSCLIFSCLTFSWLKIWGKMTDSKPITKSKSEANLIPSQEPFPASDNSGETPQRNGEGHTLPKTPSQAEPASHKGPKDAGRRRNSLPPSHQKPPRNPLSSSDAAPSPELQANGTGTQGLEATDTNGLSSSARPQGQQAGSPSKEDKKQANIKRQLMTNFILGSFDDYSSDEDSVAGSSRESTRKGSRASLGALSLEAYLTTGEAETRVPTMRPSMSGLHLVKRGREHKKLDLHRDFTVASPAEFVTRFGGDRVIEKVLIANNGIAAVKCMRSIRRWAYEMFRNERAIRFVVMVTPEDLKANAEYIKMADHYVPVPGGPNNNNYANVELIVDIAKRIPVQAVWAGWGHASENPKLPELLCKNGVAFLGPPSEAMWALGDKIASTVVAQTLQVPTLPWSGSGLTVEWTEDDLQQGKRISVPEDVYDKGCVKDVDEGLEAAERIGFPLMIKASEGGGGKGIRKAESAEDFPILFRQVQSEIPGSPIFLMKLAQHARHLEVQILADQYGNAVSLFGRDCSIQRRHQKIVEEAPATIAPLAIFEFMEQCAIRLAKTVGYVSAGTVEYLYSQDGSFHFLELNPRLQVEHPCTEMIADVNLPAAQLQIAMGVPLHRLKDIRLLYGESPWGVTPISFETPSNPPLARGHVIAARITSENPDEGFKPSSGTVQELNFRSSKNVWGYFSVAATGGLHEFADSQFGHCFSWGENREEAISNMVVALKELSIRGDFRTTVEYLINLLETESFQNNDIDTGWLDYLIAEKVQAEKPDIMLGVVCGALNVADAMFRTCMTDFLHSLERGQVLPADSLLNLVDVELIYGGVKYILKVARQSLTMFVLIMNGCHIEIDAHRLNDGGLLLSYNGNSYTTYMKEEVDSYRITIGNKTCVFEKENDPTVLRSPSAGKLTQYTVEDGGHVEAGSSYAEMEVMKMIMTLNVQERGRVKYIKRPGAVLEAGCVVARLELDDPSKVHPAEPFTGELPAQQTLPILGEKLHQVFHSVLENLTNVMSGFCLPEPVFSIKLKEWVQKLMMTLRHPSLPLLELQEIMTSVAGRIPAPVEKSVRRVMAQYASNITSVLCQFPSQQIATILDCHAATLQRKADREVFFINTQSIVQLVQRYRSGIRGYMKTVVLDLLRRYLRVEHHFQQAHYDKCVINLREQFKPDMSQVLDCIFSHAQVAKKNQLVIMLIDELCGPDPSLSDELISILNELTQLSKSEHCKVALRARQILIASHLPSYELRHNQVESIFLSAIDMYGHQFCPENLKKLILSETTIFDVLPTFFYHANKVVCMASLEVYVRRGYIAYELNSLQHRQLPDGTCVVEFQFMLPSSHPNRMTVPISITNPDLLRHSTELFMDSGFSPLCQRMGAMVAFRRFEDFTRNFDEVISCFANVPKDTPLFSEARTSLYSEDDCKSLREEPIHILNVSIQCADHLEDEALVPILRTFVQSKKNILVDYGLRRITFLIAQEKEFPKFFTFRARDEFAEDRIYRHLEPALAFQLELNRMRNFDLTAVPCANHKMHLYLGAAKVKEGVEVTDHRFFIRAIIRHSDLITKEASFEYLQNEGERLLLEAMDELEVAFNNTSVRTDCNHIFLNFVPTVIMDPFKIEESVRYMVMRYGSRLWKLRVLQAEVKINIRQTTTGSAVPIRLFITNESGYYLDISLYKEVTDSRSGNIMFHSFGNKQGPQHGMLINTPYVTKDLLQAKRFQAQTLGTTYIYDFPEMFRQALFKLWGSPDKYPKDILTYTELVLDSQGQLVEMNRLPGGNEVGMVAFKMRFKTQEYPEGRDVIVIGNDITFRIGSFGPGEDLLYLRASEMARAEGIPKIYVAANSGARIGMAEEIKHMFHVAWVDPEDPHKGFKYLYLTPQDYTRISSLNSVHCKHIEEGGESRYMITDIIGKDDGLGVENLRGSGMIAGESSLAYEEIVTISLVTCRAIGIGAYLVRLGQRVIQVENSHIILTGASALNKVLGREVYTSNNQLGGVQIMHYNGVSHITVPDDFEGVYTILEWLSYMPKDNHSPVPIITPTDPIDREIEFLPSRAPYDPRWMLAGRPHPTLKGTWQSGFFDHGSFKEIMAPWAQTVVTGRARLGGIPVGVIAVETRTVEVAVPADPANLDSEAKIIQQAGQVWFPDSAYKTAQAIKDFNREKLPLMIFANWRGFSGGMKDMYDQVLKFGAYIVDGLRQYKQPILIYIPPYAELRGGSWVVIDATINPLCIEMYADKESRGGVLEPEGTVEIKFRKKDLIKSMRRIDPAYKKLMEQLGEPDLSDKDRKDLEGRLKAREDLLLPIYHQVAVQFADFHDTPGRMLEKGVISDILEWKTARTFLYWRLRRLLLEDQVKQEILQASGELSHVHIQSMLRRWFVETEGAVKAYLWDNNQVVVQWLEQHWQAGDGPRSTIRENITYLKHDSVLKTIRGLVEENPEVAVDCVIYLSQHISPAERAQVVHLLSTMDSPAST
Procedure: For example direct inhibition of ACC activity, for the compound of Formula (1) was determined using preparations of recombinant human ACC1 (rhACC1) and recombinant human ACC2 (rhACC2). Representative sequences of the recombinant human ACC1 and ACC2 that can be used in the assay are provided in FIG. 1 (SEQ ID NO. 1) and FIG. 2 (SEQ. ID NO. 2), respectively.
[3] Preparation of rhACC2. Human ACC2 inhibition was measured using purified recombinant human ACC2 (hrACC2). Briefly, a full length Cytomax clone of ACC2 was purchased from Cambridge Bioscience Limited and was sequenced and subcloned into PCDNA5 FRT TO-TOPO (Invitrogen, Carlsbad, Calif.). The ACC2 was expressed in CHO cells by tetracycline induction and harvested in 5 liters of DMEM/F12 with glutamine, biotin, hygromycin and blasticidin with 1 μg/mL tetracycline (Invitrogen, Carlsbad, Calif.). The conditioned medium containing ACC2 was then applied to a Softlink Soft Release Avidin column (Promega, Madison, Wis.) and eluted with 5 mM biotin. 4 mgs of ACC2 were eluted at a concentration of 0.05 mg/mL (determined by A280) with an estimated purity of 95% ([…]). The purified ACC2 was dialyzed in 50 mM Tris, 200 mM NaCl, 4 mM DTT, 2 mM EDTA, and 5% glycerol. The pooled protein was frozen and stored at −80° C., with no loss of activity upon thawing. For measurement of ACC2 activity and assessment of ACC2 inhibition, test compounds were dissolved in DMSO and added to the rhACC2 enzyme as a 5× stock with a final DMSO concentration of 1%.
[4] Measurement of human ACC2 inhibition. hACC2 was assayed in a Costar #3676 (Costar, Cambridge, Mass.) 384-well plate using the Transcreener ADP detection FP assay kit (Bellbrook Labs, Madison, Wis.) using the manufacturer's recommended conditions for a 50 uM ATP reaction. The final conditions for the assay were 50 mM HEPES, pH 7.2, 5 mM MgCl2, 5 mM tripotassium citrate, 2 mM DTT, 0.1 mg/mL BSA, 30 μM acetyl-CoA, 50 μM ATP, and 8 mM KHCO3. Typically, a 10 μl reaction was run for 50 min at 25° C., and 10 μl of Transcreener stop and detect buffer was added and the combination incubated at room temp for an additional 1 hour. The data was acquired on an Envision Fluorescence reader (Perkinelmer) using a 620 excitation Cy5 FP general dual mirror, 620 excitation Cy5 FP filter, 688 emission (S) and a 688 (P) emission filter.
The results using the recombinant hACC1 and recombinant hACC2 Transcreener assays described above are summarized in the table below for the Compounds of Formula (I) exemplified in the Examples above. All of the examples in both assays were run with a minimum of n=3.

[2] = molecular target: T2, recombinant human ACC1 (rhACC1) (Homo sapiens, UniProt Q13085, DEL44-44); test: recombinant hACC1 Transcreener assay (ADP detection FP); format: biochemical; conditions: recombinant hACC1 Transcreener assay, 50 μM ATP, minimum of n=3; read-out: hACC1
T2 construct: infected with recombinant baculovirus containing full length human ACC1 cDNA; made in house; host or cells: SF9 insect cells (baculovirus)
Procedure: For example direct inhibition of ACC activity, for the compound of Formula (1) was determined using preparations of recombinant human ACC1 (rhACC1) and recombinant human ACC2 (rhACC2).
[1] Preparation of rhACC1. Two liters of SF9 cells, infected with recombinant baculovirus containing full length human ACC1 cDNA, were suspended in ice-cold lysis buffer (25 mM Tris, pH 7.5; 150 mM NaCl; 10% glycerol; 5 mM imidazole (EMD Bioscience; Gibbstown, N.J.); 2 mM TCEP (BioVectra; Charlottetown, Canada); Benzonase nuclease (10000 U/100 g cell paste; Novagen; Madison, Wis.); EDTA-free protease inhibitor cocktail (1 tab/50 mL; Roche Diagnostics; Mannheim, Germany). Cells were lysed by 3 cycles of freeze-thaw and centrifuged at 40,000×g for 40 minutes (4° C.). Supernatant was directly loaded onto a HisTrap FF crude column (GE Healthcare; Piscataway, N.J.) and eluted with an imidazole gradient up to 0.5 M over 20 column volumes (CV). ACC1-containing fractions were pooled and diluted 1:5 with 25 mM Tris, pH 7.5, 2 mM TCEP, 10% glycerol and direct loaded onto a CaptoQ (GE Healthcare) column and eluted with an NaCl gradient up to 1 M over 20 CV's. Phosphate groups were removed from purified ACC1 by incubation with lambda phosphatase (100 U/10 μM target protein; New England Biolabs; Beverly, Mass.) for 14 hours at 4° C.; okadaic acid was added (1 μM final concentration; Roche Diagnostics) to inhibit the phosphatase. Purified ACC1 was exchanged into 25 mM Tris, pH 7.5, 2 mM TCEP, 10% glycerol, 0.5 M NaCl by 6 hour dialysis at 4° C. Aliquots were prepared and frozen at −80° C.
[2] […] The final conditions for the assay were 50 mM HEPES, pH 7.2, 10 mM MgCl2, 7.5 mM tripotassium citrate, 2 mM DTT, 0.1 mg/mL BSA, 30 μM acetyl-CoA, 50 μM ATP, and 10 mM KHCO3. Typically, a 10 μl reaction was run for 120 min at 25° C., and 10 μl of Transcreener stop and detect buffer was added and the combination incubated at room temp for an additional 1 hour.
All of the examples in both assays were run with a minimum of n=3.

Question: With CC(C)n1ncc2c1C(=O)CC1(CCN(C(=O)c3cc4c(-c5ccc(C(=O)O)cc5)nccc4[nH]3)CC1)C2 [Example 30, 4-{2-[(1-isopropyl-7-oxo-1,4,6,7-tetrahydro-1′H-spiro[indazole-5,4′-piperidin]-1′-yl)carbonyl]-1H-pyrrolo[3,2-c]pyridin-4-yl}benzoic acid] as the compound, how does the pIC50 [1] read?
Answer: 7.73

Question: And the pIC50 [2]?
Answer: 7.79

Question: How did the pIC50 [1] turn out when COc1ccc(-c2cccc3[nH]c(C(=O)N4CCC5(CC4)CC(=O)c4c(cnn4C(C)C)C5)cc23)cc1CC(=O)O [Example 31, (5-{2-[(1-isopropyl-7-oxo-1,4,6,7-tetrahydro-1′H-spiro[indazole-5,4′-piperidin]-1′-yl)carbonyl]-1H-indol-4-yl}-2-methoxyphenyl)acetic acid] was run?
Answer: 7.26

Question: And the pIC50 [2]?
Answer: 7.64

Question: What does the source list for CC(C)n1ncc2c1C(=O)CC1(CCN(C(=O)c3cc(-c4cccc(C(=O)O)c4)nc(N(C)C)c3)CC1)C2 [Example 32, 3-{6-(dimethylamino)-4-[(1-isopropyl-7-oxo-1,4,6,7-tetrahydro-1′H-spiro[indazole-5,4′-piperidin]-1′-yl)carbonyl]pyridin-2-yl}benzoic acid]?
Answer: pIC50 [1]: 7.90; pIC50 [2]: 7.50

Question: CC(C)n1ncc2c1C(=O)CC1(CCN(C(=O)c3cc(-c4ccc(C(=O)O)cc4)nc(N(C)C)c3)CC1)C2 [Example 33, 4-{6-(dimethylamino)-4-[(1-isopropyl-7-oxo-1,4,6,7-tetrahydro-1′H-spiro[indazole-5,4′-piperidin]-1′-yl)carbonyl]pyridin-2-yl}benzoic acid] was tested. Which pIC50 [1] did it give?
Answer: 8.06

Question: And the pIC50 [2]?
Answer: 7.79

Question: Which results are given for CC(C)n1ncc2c1C(=O)CC1(CCN(C(=O)c3cc4c(-c5ccc(C(=O)O)cc5)ncnc4[nH]3)CC1)C2 [Example 34, 4-{6-[(1-isopropyl-7-oxo-1,4,6,7-tetrahydro-1′H-spiro[indazole-5,4′-piperidin]-1′-yl)carbonyl]-7H-pyrrolo[2,3-d]pyrimidin-4-yl}benzoic acid]?
Answer: pIC50 [1]: 7.37; pIC50 [2]: 7.25

Question: How did the pIC50 [1] turn out when CC(C)n1ncc2c1C(=O)CC1(CCN(C(=O)c3cc4c(-c5cccc(C(=O)O)c5)nccc4[nH]3)CC1)C2 [Example 35, 3-{2-[(1-isopropyl-7-oxo-1,4,6,7-tetrahydro-1′H-spiro[indazole-5,4′-piperidin]-1′-yl)carbonyl]-1H-pyrrolo[3,2-c]pyridin-4-yl}benzoic acid] was run?
Answer: 7.90

Question: What about the pIC50 [2] of the same compound?
Answer: 7.49

Question: With CC(C)n1ncc2c1C(=O)CC1(CCN(C(=O)c3cc4c(-c5cccc(C(=O)O)c5)ncnc4[nH]3)CC1)C2 [Example 36, 3-{6-[(1-isopropyl-7-oxo-1,4,6,7-tetrahydro-1′H-spiro[indazole-5,4′-piperidin]-1′-yl)carbonyl]-7H-pyrrolo[2,3-d]pyrimidin-4-yl}benzoic acid] as the compound, how does the pIC50 [1] read?
Answer: 7.53

Question: What about the pIC50 [2] of the same compound?
Answer: 7.35

Question: How did the pIC50 [1] turn out when CC(C)n1ncc2c1C(=O)CC1(CCN(C(=O)c3cc(-c4ccc(C(=O)O)cc4)c4cc[nH]c4c3)CC1)C2 [Example 37, 4-{6-[(1-isopropyl-7-oxo-1,4,6,7-tetrahydro-1′H-spiro[indazole-5,4′-piperidin]-1′-yl)carbonyl]-1H-indol-4-yl}benzoic acid] was run?
Answer: 8.49

Question: What about the pIC50 [2] of the same compound?
Answer: 8.18

Question: What does the source list for CC(C)n1ncc2c1C(=O)CC1(CCN(C(=O)c3cc4c(-c5ccc(C(=O)O)cc5)cncc4[nH]3)CC1)C2 [Example 38, 4-{2-[(1-isopropyl-7-oxo-1,4,6,7-tetrahydro-1′H-spiro[indazole-5,4′-piperidin]-1′-yl)carbonyl]-1H-pyrrolo[2,3-c]pyridin-4-yl}benzoic acid]?
Answer: pIC50 [1]: 7.70; pIC50 [2]: 7.47

Question: With CC(C)n1ncc2c1C(=O)CC1(CCN(C(=O)c3cc(-c4cccc(C(=O)O)c4)c4cc[nH]c4c3)CC1)C2 [Example 39, 3-{6-[(1-isopropyl-7-oxo-1,4,6,7-tetrahydro-1′H-spiro[indazole-5,4′-piperidin]-1′-yl)carbonyl]-1H-indol-4-yl}benzoic acid] as the compound, how does the pIC50 [1] read?
Answer: 7.53

Question: And the pIC50 [2]?
Answer: 7.54

Question: How did the pIC50 [1] turn out when CC(C)n1ncc2c1C(=O)CC1(CCN(C(=O)c3cc4c(-c5cccc(C(=O)O)c5)cncc4[nH]3)CC1)C2 [Example 40, 3-{2-[(1-isopropyl-7-oxo-1,4,6,7-tetrahydro-1′H-spiro[indazole-5,4′-piperidin]-1′-yl)carbonyl]-1H-pyrrolo[2,3-c]pyridin-4-yl}benzoic acid] was run?
Answer: 8.21

Question: What about the pIC50 [2] of the same compound?
Answer: 7.99

Question: With CC(C)n1ncc2c1C(=O)CC1(CCN(C(=O)c3cc4ccc(-c5cccc(C(=O)O)c5)cc4[nH]3)CC1)C2 [Example 41, 3-{2-[(1-isopropyl-7-oxo-1,4,6,7-tetrahydro-1′H-spiro[indazole-5,4′-piperidin]-1′-yl)carbonyl]-1H-indol-6-yl}benzoic acid] as the compound, how does the pIC50 [1] read?
Answer: 7.82

Question: And the pIC50 [2]?
Answer: 8.07

Question: What does the source list for CC(C)n1ncc2c1C(=O)CC1(CCN(C(=O)c3ccc(-c4ccc(C(=O)O)cc4)nc3NCC(F)(F)F)CC1)C2 [Example 42, 4-{5-[(1-isopropyl-7-oxo-1,4,6,7-tetrahydro-1′H-spiro[indazole-5,4′-piperidin]-1′-yl)carbonyl]-6-[(2,2,2-trifluoroethyl)amino]pyridin-2-yl}benzoic acid]?
Answer: pIC50 [1]: 7.52; pIC50 [2]: 7.40

Question: What does the source list for CNc1ncc(-c2cccc(C(=O)O)c2)cc1C(=O)N1CCC2(CC1)CC(=O)c1c(cnn1C(C)C)C2 [Example 43, 3-{5-[(1-isopropyl-7-oxo-1,4,6,7-tetrahydro-1′H-spiro[indazole-5,4′-piperidin]-1′-yl)carbonyl]-6-(methylamino)pyridin-3-yl}benzoic acid]?
Answer: pIC50 [1]: 6.88; pIC50 [2]: 7.01

Question: With CNc1ncc(-c2ccc(C(=O)O)cc2)cc1C(=O)N1CCC2(CC1)CC(=O)c1c(cnn1C(C)C)C2 [Example 44, 4-{5-[(1-isopropyl-7-oxo-1,4,6,7-tetrahydro-1′H-spiro[indazole-5,4′-piperidin]-1′-yl)carbonyl]-6-(methylamino)pyridin-3-yl}benzoic acid] as the compound, how does the pIC50 [1] read?
Answer: 7.44

Question: What about the pIC50 [2] of the same compound?
Answer: 7.46

Question: How did the pIC50 [1] turn out when CC(C)n1ncc2c1C(=O)CC1(CCN(C(=O)c3nc4cc(-c5ccc(C(=O)O)cc5)ccc4[nH]3)CC1)C2 [Example 46, 4-{2-[(1-isopropyl-7-oxo-1,4,6,7-tetrahydro-1′H-spiro[indazole-5,4′-piperidin]-1′-yl)carbonyl]-1H-benzimidazol-5-yl}benzoic acid] was run?
Answer: 7.80

Question: And the pIC50 [2]?
Answer: 7.94
